Laboratory results from patent US20200172529A1, “Chemical Compound, Pharmaceutical Composition Thereof, and Use and Application Thereof” (Beijing Hanmi Pharm. Co., Ltd., priority 2017, published 2020).

Assays:
TYK2 kinase = molecular target: T1, TYK2 kinase (Homo sapiens, UniProt P29597); assay: Inhibition assay of TYK2 kinase activity (ADP-Glo Kinase Assay); type: biochemical
T1 construct: purchased Life Technologies PR8440C
Protocol: Determination of inhibition of TYK2 kinase activity by the examples compounds disclosed herein
Inhibition assay of TYK2 kinase activity: the method of ADP-Glo™ Kinase Assay (Promega, V9102) was used to determine the inhibitory activity of the test compounds against TYK2 kinase.
TYK2 kinase (purchased from Life Technologies, article number: PR8440C) was diluted to the 2-fold final concentration (0.8 ng/mL) using reaction buffer (40 mM Tris-HCl, pH 7.5; 20 mM MgCl2; 0.1 mg/mL BSA; 1 mM DTT), and added to a 384-well plate at 5 μL/well. The test drugs were subjected to a 10-fold gradient dilution, from 10 μM, to obtain 6 concentrations, and added to experimental wells of the 384-well plate at 2.5 μL/well. 5 μL of water and 2.5 μL of buffer were added to negative control wells. 5 μL of TYK2 and 2.5 μL of water were added to positive control wells. After incubating for 10 minutes at room temperature, the substrate ATP and polyE4Y1 (Sigma, P0275) were added at 2.5 μL/well, mixed well, and then reacted at room temperature for 60 minutes. After the reaction was completed, the kinase activity was detected according to the instruction of the kit. First, the ADP-Glo reaction reagent was added at 10 μL/well, mixed well, and reacted at room temperature for 40 minutes. The kinase detection reagent was then added at 20 μL/well, mixed well, and then reacted at room temperature for 30 minutes. The detection was then performed and the IC50s of test drugs were calculated.

JAK1 kinase = JAK1 kinase (Homo sapiens, UniProt P23458); assay: Inhibition assay of JAK1 kinase activity (ADP-Glo Kinase Assay); type: biochemical
Chain of JAK1 kinase (P23458 whole entry): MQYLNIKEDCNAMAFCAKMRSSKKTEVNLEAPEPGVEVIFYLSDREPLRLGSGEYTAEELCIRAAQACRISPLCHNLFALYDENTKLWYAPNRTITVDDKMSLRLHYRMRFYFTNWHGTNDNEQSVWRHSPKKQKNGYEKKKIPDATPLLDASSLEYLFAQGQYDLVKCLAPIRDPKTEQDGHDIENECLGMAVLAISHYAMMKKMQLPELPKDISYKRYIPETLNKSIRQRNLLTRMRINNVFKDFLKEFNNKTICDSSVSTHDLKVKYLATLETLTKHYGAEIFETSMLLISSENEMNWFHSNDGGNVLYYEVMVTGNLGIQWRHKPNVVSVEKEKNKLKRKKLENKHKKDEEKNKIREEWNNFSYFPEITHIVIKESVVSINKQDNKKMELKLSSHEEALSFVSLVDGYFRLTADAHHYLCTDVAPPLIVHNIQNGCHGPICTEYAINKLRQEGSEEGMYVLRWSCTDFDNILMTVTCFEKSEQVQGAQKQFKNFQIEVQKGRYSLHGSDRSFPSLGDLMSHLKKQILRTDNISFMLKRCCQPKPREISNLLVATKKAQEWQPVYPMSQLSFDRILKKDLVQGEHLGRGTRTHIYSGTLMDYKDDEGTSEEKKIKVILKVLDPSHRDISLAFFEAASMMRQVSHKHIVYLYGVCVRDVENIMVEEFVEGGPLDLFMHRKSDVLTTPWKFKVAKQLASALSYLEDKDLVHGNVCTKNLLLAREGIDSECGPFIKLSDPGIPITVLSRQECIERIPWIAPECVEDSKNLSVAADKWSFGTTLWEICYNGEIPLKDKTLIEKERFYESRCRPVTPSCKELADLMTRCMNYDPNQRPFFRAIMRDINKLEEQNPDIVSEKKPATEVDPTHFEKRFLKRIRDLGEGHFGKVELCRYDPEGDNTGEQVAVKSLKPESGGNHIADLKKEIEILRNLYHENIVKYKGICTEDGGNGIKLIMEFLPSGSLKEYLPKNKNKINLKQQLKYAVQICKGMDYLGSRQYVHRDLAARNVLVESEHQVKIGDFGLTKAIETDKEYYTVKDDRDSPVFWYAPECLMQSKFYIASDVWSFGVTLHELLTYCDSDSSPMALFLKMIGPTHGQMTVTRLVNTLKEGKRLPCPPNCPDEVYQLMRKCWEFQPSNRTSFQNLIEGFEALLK
Source text: Inhibition assay of JAK1 kinase activity: the method in ADP-Glo™ Kinase Assay (Promega, V9102) was used to determine the inhibitory activity of the test compounds against JAK1 kinase.

T1 sequence (P29597 whole entry): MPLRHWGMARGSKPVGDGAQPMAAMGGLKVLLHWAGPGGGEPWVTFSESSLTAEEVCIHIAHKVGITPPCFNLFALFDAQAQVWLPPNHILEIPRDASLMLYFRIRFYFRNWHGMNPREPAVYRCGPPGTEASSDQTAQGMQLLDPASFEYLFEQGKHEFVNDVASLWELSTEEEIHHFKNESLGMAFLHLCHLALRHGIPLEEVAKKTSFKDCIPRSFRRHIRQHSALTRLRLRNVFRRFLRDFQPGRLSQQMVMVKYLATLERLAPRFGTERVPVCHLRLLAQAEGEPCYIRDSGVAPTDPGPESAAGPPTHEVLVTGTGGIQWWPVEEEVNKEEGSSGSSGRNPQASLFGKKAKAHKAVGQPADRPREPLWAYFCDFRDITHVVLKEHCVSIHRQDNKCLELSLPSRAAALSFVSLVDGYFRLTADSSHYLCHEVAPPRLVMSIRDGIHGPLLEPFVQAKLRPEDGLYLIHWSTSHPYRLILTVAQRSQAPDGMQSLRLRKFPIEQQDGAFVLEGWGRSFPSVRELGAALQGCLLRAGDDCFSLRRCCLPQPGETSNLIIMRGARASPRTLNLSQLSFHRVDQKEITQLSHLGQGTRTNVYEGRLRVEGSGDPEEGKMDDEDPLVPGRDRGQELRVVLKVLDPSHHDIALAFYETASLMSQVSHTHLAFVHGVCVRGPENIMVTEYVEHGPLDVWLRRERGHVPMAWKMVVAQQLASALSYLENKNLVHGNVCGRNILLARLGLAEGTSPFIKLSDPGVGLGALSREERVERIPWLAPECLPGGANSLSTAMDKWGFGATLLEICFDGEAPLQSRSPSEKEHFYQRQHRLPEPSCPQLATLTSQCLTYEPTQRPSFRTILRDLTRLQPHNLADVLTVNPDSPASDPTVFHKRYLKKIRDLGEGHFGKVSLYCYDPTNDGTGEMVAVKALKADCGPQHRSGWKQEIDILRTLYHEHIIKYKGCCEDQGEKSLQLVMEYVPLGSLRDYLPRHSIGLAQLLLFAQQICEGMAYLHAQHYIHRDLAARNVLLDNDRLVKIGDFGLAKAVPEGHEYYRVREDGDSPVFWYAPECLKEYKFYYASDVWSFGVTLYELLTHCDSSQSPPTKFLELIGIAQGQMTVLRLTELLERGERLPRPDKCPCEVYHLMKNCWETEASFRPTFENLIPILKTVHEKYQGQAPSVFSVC

Row | SMILES | IC50 (TYK2 kinase) | IC50 (JAK1 kinase)
1 | NC(=O)c1cnc(Nc2ccc3c(c2)NCC(O)CO3)nc1NC1CCCC1 (centres unmarked) [Example 3, 4-(cyclopentylamino)-2-((3-hydroxy-2,3,4,5-tetrahydro-benzo[b][1,4]oxazepin-7-yl)amino)pyrimidin-5-carboxamide] | < 0.01 µM | < 0.01 µM
2 | NC(=O)c1cnc(Nc2ccc3c(c2)NCC(O)CO3)nc1NC1CCCCC1 (centres unmarked) [Example 4, 4-(cyclohexylamino)-2-((3-hydroxy-2,3,4,5-tetrahydro-benzo[b][1,4]oxazepin-7-yl)amino)pyrimidin-5-carboxamide] | < 0.01 µM | 0.01 to 0.1 µM
3 | NC(=O)c1cnc(Nc2ccc3c(c2)NCC(O)CO3)nc1NC12CC3CC(CC(C3)C1)C2 (centres unmarked) [Example 5, 4-((adamantanyl-1-yl)amino)-2-((3-hydroxy-2,3,4,5-tetrahydro-benzo[b][1,4]oxazepin-7-yl)amino)pyrimidin-5-carboxamide] | 0.01 to 0.1 µM | 0.01 to 0.1 µM
4 | NC(=O)c1cnc(Nc2ccc3c(c2)NCC(O)CO3)nc1NC1CCOCC1 (centres unmarked) [Example 6, 4-((tetrahydropyran-4-yl)amino)-2-((3-hydroxy-2,3,4,5-tetrahydro-benzo[b][1,4]oxazepin-7-yl)amino)pyrimidin-5-carboxamide] | < 0.01 µM | 0.01 to 0.1 µM
5 | N#CCNc1nc(Nc2ccc3c(c2)NCC(O)CO3)ncc1C(N)=O (centres unmarked) [Example 8, 4-(cyanomethylamino)-2-((3-hydroxy-2,3,4,5-tetrahydro-benzo[b][1,4]oxazepin-7-yl)amino)pyrimidin-5-carboxamide] | < 0.01 µM | 0.01 to 0.1 µM
6 | NC(=O)c1cnc(Nc2ccc3c(c2)NCC(O)CO3)nc1NCc1ccc(F)cc1 (centres unmarked) [Example 10, 4-((4-fluorobenzyl)amino)-2-((3-hydroxy-2,3,4,5-tetrahydro-benzo[b][1,4]oxazepin-7-yl)amino)pyrimidin-5-carboxamide] | 0.01 to 0.1 µM | –
7 | COc1ccc(CNc2nc(Nc3ccc4c(c3)NCC(O)CO4)ncc2C(N)=O)cc1 (centres unmarked) [Example 11, 4-((4-methoxybenzyl)amino)-2-((3-hydroxy-2,3,4,5-tetrahydro-benzo[b][1,4]oxazepin-7-yl)amino)pyrimidin-5-carboxamide] | 0.01 to 0.1 µM | –
8 | CC(Nc1nc(Nc2ccc3c(c2)NCC(O)CO3)ncc1C(N)=O)c1ccccc1 (centres unmarked) [Example 12, 4-((1-phenylethyl)amino)-2-((3-hydroxy-2,3,4,5-tetrahydro-benzo[b][1,4]oxazepin-7-yl)amino)pyrimidin-5-carboxamide] | 0.01 to 0.1 µM | –
9 | NC(=O)c1cnc(Nc2ccc3c(c2)NCC(O)CO3)nc1NCc1ccccn1 (centres unmarked) [Example 13, 4-((pyridin-2-ylmethyl)amino)-2-((3-hydroxy-2,3,4,5-tetrahydro-benzo[b][1,4]oxazepin-7-yl)amino)pyrimidin-5-carboxamide] | < 0.01 µM | –
10 | NC(=O)c1cnc(Nc2ccc3c(c2)NCC(O)CO3)nc1NCc1cccnc1 (centres unmarked) [Example 14, 4-((pyridin-3-ylmethyl)amino)-2-((3-hydroxy-2,3,4,5-tetrahydro-benzo[b][1,4]oxazepin-7-yl)amino)pyrimidin-5-carboxamide] | < 0.01 µM | 0.01 to 0.1 µM
11 | NC(=O)c1cnc(Nc2ccc3c(c2)NCC(O)CO3)nc1NCc1ccncc1 (centres unmarked) [Example 15, 4-((pyridin-4-ylmethyl)amino)-2-((3-hydroxy-2,3,4,5-tetrahydro-benzo[b][1,4]oxazepin-7-yl)amino)pyrimidin-5-carboxamide] | 0.01 to 0.1 µM | –
12 | NC(=O)c1cnc(Nc2ccc3c(c2)NCC(O)CO3)nc1Nc1ccccc1 (centres unmarked) [Example 16, 4-(phenylamino)-2-((3-hydroxy-2,3,4,5-tetrahydro-benzo[b][1,4]oxazepin-7-yl)amino)pyrimidin-5-carboxamide] | 0.01 to 0.1 µM | –
13 | Cc1cccc(Nc2nc(Nc3ccc4c(c3)NCC(O)CO4)ncc2C(N)=O)c1 (centres unmarked) [Example 17, 4-((3-methylphenyl)amino)-2-((3-hydroxy-2,3,4,5-tetrahydro-benzo[b][1,4]oxazepin-7-yl)amino)pyrimidin-5-carboxamide] | < 0.01 µM | 0.01 to 0.1 µM
14 | NC(=O)c1cnc(Nc2ccc3c(c2)NCC(O)CO3)nc1Nc1cccc(F)c1 (centres unmarked) [Example 18, 4-((3-fluorophenyl)amino)-2-((3-hydroxy-2,3,4,5-tetrahydro-benzo[b][1,4]oxazepin-7-yl)amino)pyrimidin-5-carboxamide] | 0.01 to 0.1 µM | –
15 | Cc1ccc(Nc2nc(Nc3ccc4c(c3)NCC(O)CO4)ncc2C(N)=O)nc1 (centres unmarked) [Example 19, 4-((5-methylpyridin-2-yl)amino)-2-((3-hydroxy-2,3,4,5-tetrahydro-benzo[b][1,4]oxazepin-7-yl)amino)pyrimidin-5-carboxamide] | 0.01 to 0.1 µM | –
16 | Cn1ccc2c(Nc3nc(Nc4ccc5c(c4)NCC(O)CO5)ncc3C(N)=O)cccc21 (centres unmarked) [Example 20, 4-((1-methyl-1H-indol-4-yl)amino)-2-((3-hydroxy-2,3,4,5-tetrahydro-benzo[b][1,4]oxazepin-7-yl)amino)pyrimidin-5-carboxamide] | < 0.01 µM | 0.01 to 0.1 µM
17 | NC(=O)c1cnc(Nc2ccc3c(c2)NCC(O)CO3)nc1Nc1cccc2sccc12 (centres unmarked) [Example 21, 4-(benzo[b]thiophen-4-ylamino)-2-((3-hydroxy-2,3,4,5-tetrahydro-benzo[b][1,4]oxazepin-7-yl)amino)pyrimidin-5-carboxamide] | < 0.01 µM | –
18 | NC(=O)c1cnc(Nc2ccc3c(c2)NCC(O)CO3)nc1NC1CCCc2ccccc21 (centres unmarked) [Example 22, 4-((1,2,3,4-tetrahydronaphthalen-1-yl)amino)-2-((3-hydroxy-2,3,4,5-tetrahydro-benzo[b][1,4]oxazepin-7-yl)amino)pyrimidin-5-carboxamide] | 0.01 to 0.1 µM | –
19 | CC(O)CNc1nc(Nc2ccc3c(c2)NCC(O)CO3)ncc1C(N)=O (centres unmarked) [Example 23, 4-((2-hydroxypropyl)amino)-2-((3-hydroxy-2,3,4,5-tetrahydro-benzo[b][1,4]oxazepin-7-yl)amino)pyrimidin-5-carboxamide] | < 0.01 µM | –
20 | CC(C)(CO)Nc1nc(Nc2ccc3c(c2)NC[C@H](O)CO3)ncc1C(N)=O [Example 28, 4-((1-hydroxy-2-methylpropan-2-yl)amino)-2-(((S)-2,3,4,5-tetrahydro-3-hydroxybenzo[b][1,4]oxazepin-7-yl)amino)pyrimidin-5-carboxamide] | < 0.01 µM | –
21 | CCS(=O)(=O)NCCNc1nc(Nc2ccc3c(c2)NC[C@H](O)CO3)ncc1C(N)=O [Example 71, 4-((2-(ethylsulfonamido)ethyl)amino)-2-(((S)-2,3,4,5-tetrahydro-3-hydroxybenzo[b][1,4]oxazepin-7-yl)amino)pyrimidin-5-carboxamide] | < 0.01 µM | –
22 | CCO[C@@H]1CNc2cc(Nc3ncc(C(N)=O)c(NC4CC4)n3)ccc2OC1 [Example 83, 4-(cyclopropylamino)-2-(((R)-2,3,4,5-tetrahydro-3-ethoxybenzo[b][1,4]oxazepin-7-yl)amino)pyrimidin-5-carboxamide] | < 0.01 µM | –
23 | CCCCO[C@@H]1CNc2cc(Nc3ncc(C(N)=O)c(NC4CC4)n3)ccc2OC1 [Example 85, 4-(cyclopropylamino)-2-(((R)-2,3,4,5-tetrahydro-3-butoxybenzo[b][1,4]oxazepin-7-yl)amino)pyrimidin-5-carboxamide] | < 0.01 µM | –
24 | CCCCCO[C@H]1CNc2cc(Nc3ncc(C(N)=O)c(NC4CC4)n3)ccc2OC1 [Example 88, 4-(cyclopropylamino)-2-(((S)-2,3,4,5-tetrahydro-3-pentoxybenzo[b][1,4]oxazepin-7-yl)amino)pyrimidin-5-carboxamide] | 0.01 to 0.1 µM | –
